This note sets out measurements from article PMC5020642, “Structural insight into the arginine-binding specificity of CASTOR1 in amino acid-dependent mTORC1 signaling” (Cell Discovery, 2016).

Changes are numbered by the printed parent chain.

For one data set, the target named is T1, A^2A^1A^2A^1.
T1 construct: gene CASTOR2; one polypeptide: CASTOR2 with ACT2 and ACT4 replaced by those of CASTOR1 (CASTOR1 residues 1-5, 76-147, 176-179, 263-329); E. coli
Kind of data set: isothermal titration calorimetry. In kind it is binding, Homo sapiens. Particulars: 20 °C; 1 mM ligand titrated into 70 μM protein; single-site model. An excerpt: isothermal titration calorimetry on A^2A^1A^2A^1
For orientation: ITC needs no label: the signal is the heat of the interaction.

The target in data set [1] is T2, CASTOR1 (Homo sapiens, UniProt Q8WTX7).
T2 construct: full-length, residues 1-329, C-terminal His6 tag (pET-28a), E. coli BL21(DE3), homodimer in solution; Ni-NTA and gel filtration
T2 sequence (Q8WTX7 1-329): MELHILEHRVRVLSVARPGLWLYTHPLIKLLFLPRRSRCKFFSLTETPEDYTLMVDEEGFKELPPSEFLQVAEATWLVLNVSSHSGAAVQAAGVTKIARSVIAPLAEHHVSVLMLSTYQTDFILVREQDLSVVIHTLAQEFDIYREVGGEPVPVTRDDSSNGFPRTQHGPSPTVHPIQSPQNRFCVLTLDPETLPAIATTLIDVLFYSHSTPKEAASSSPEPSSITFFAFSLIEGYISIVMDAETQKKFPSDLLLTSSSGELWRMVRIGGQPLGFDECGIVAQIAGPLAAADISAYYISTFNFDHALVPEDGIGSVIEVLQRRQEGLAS
Description: isothermal titration calorimetry. In kind it is binding.

In a further data set the target is T3, A^2A^2A^2A^1.
T3 construct: gene CASTOR2; one polypeptide: CASTOR2 with ACT4 replaced by ACT4 of CASTOR1 (ACT4 of CASTOR1 = residues 176-179 and 263-329); E. coli
Description: isothermal titration calorimetry. In kind it is binding, Homo sapiens. Particulars: 20 °C; 1 mM ligand titrated into 70 μM protein; single-site model. The source says:
isothermal titration calorimetry on A^2A^2A^2A^1

In data set [2] the target is T4, CASTOR1 (Homo sapiens, UniProt Q8WTX7, F303A).
T4 construct: full-length, residues 1-329, C-terminal His6 tag (pET-28a), E. coli BL21(DE3), homodimer in solution; Ni-NTA and gel filtration
T4 sequence (Q8WTX7 1-329 F303A): T2 sequence (Q8WTX7 1-329) with F303A
Kind of data set: isothermal titration calorimetry. In kind it is binding. An excerpt: (§1) isothermal titration calorimetry on CASTOR1

Data set [3] has as its target T5, CASTOR1 (Homo sapiens, UniProt Q8WTX7, L113A).
T5 construct: full-length, residues 1-329, C-terminal His6 tag (pET-28a), E. coli BL21(DE3), homodimer in solution; Ni-NTA and gel filtration
T5 sequence (Q8WTX7 1-329 L113A): T2 sequence (Q8WTX7 1-329) with L113A
Kind of data set: isothermal titration calorimetry. In kind it is binding.
Source text: as §1

The target of data set [4] is T6, CASTOR1 (Homo sapiens, UniProt Q8WTX7, V281A).
T6 construct: full-length, residues 1-329, C-terminal His6 tag (pET-28a), E. coli BL21(DE3), homodimer in solution; Ni-NTA and gel filtration
T6 sequence (Q8WTX7 1-329 V281A): T2 sequence (Q8WTX7 1-329) with V281A
Description: isothermal titration calorimetry. In kind it is binding.
Source text: as §1

The next data set has as its target T7, A^2A^1A^2A^2.
T7 construct: gene CASTOR2; one polypeptide: CASTOR2 with ACT2 replaced by ACT2 of CASTOR1 (ACT2 of CASTOR1 = residues 1-5 and 76-147); E. coli
Kind of data set: isothermal titration calorimetry. Particulars: 20 °C; 1 mM ligand titrated into 70 μM protein; single-site model. In kind it is binding, Homo sapiens. The source says: isothermal titration calorimetry on A^2A^1A^2A^2

Data set [5] deals with the molecule itself. Kind of data set: SEC + other: dynamic light scattering; purified recombinant proteins in solution; CASTOR1 with and without arginine (dimerization independent of arginine); the CASTOR1-CASTOR2 complex analysed after co-purification.

Broadly, the Kd is the concentration at which binding is half-saturated. A lower Kd goes with tighter binding. As to `N=C(N)NCCC[C@H](N)C(=O)O` [arginine], the Kd at A^2A^1A^2A^1 worked out at 8.6 ± 1.9 µM; at CASTOR1 [1] it was 5.5 ± 0.4 µM; at A^2A^2A^2A^1 it was 40.2 ± 8.4 µM; at CASTOR1 [2], 17.6 ± 1.9 µM; at CASTOR1 [3], 160 ± 23.6 µM; at CASTOR1 [4], 25.6 ± 4.3 µM. For the same molecule, the Kd at A^2A^1A^2A^2 amounted to 55 ± 11.5 µM.

B1: full-length human CASTOR1 (residues 1-329), His6-tagged (natural protein, UniProt Q8WTX7 1-329, looked up)
chain: T2 sequence (Q8WTX7 1-329)
notes: CASTOR1, human, full length, residues 1-329; Cloned in pET-28a (NcoI/XhoI); Se-Met substituted protein was used for phasing; No removal of the His6 tag is described; also called recombinant CASTOR1; source: E. coli BL21 (DE3), purified (Ni-NTA, gel filtration on Superdex 200)
As usually defined, the stoichiometry N is the number of molecules, sites or subunits per partner or assembly. On to B1, for which, in data set [5], the “stoichiometry N” value turned out to be 2.

B2: CASTOR2, His6-SUMO fusion (natural protein, human, UniProt A6NHX0 1-329, looked up)
chain: MELHILEHRLQVASVAKESIPLFTYGLIKLAFLSSKTRCKFFSLTETPEDYTIIVDEEGFLELPSSEHLSVADATWLALNVVSGGGSFSSSQPIGVTKIAKSVIAPLADQNISVFMLSTYQTDFILVRERDLPFVTHTLSSEFTILRVVNGETVAAENLGITNGFVKPKLVQRPVIHPLSSPSNRFCVTSLDPDTLPAVATLLMDVMFYSNGVKDPMATGDDCGHIRFFSFSLIEGYISLVMDVQTQQRFPSNLLFTSASGELWKMVRIGGQPLGFDECGIVAQISEPLAAADIPAYYISTFKFDHALVPEENINGVISALKVSQAEKH
notes: CASTOR2, human; Homodimer on its own; in the co-expressed complex with m3 it stands once (heterodimer); Purification of the co-expressed complex is said to be the same as for CASTOR1 (Ni-NTA), so the tag would be the handle there; also called His6-SUMO fused castor2; source: E. coli BL21 (DE3), purified (Ni-NTA, gel filtration); also co-expressed with untagged CASTOR1 in E. coli BL21 (DE3)
As to B2, the “stoichiometry N” value in data set [5] was found to be 2.
